Test: Inhibitory activity against gastrin receptor

SMILES	IC50 [nM]
Cc1cccc(NC(=O)NC2N=C(c3ccccc3)c3ccccc3N(CC(=O)NCC(=O)NCCSCc3csc(N=C(N)N)n3)C2=O)c1 (configuration not stated) [N-{[2-(2-Guanidino-thiazol-4-ylmethylsulfanyl)-ethylcarbamoyl]-methyl}-2-[2-oxo-5-phenyl-3-(3-m-tolyl-ureido)-2,3-dihydro-benzo[e][1,4]diazepin-1-yl]-acetamide]	370
Cc1cccc(NC(=O)NC2N=C(c3cccc(OCC(=O)NCC(=O)NCCSCc4csc(N=C(N)N)n4)c3)c3ccccc3N(C)C2=O)c1 (configuration not stated) [N-{[2-(2-Guanidino-thiazol-4-ylmethylsulfanyl)-ethylcarbamoyl]-methyl}-2-{3-[1-methyl-2-oxo-3-(3-m-tolyl-ureido)-2,3-dihydro-1H-benzo[e][1,4]diazepin-5-yl]-phenoxy}-acetamide]	12

— BindingDB's records for doi:10.1016/S0960-894X(96)00248-X (1996)
